Measured values reported in patent US20250154472A1, “Culture Medium for Expanding Breast Epithelial Stem Cells” (Koninklijke Nederlandse Akademie Van Wetenschappen, priority 2014, published 2025).

Tests used:
Type in all cases: cell-based, human
[1] = tested on: mammary tumor organoid line W855T; assay: Low throughput drug screen, cell viability (CellTiter-Glo 2.0), W855T; settings: 7 days
Procedure: (§1) Organoids were photographed every 3-4 days (FIG. 8) and cell viability measured at day 7 using the CellTiter-Glo 2.0 assay (G9241, Promega) (FIG. 9).
(§2) All three organoid lines respond to Iressa at concentrations ˜10 μM indicating a dependence on EGFR signaling. […] Mammary tumor organoids are suitable for cell viability based low throughput drug screens in a 96-well format. We are currently testing the assay in a 384-well plate format which has been successfully established for colon cancer organoids.

[2] = tested on: mammary tumor organoid line W859T; assay: Low throughput drug screen, cell viability (CellTiter-Glo 2.0), W859T; settings: 7 days, 1 nM-30 μM, 96-well
Procedure: as §1, §2

[3] = tested on: mammary tumor organoid line W854T; assay: Low throughput drug screen, cell viability (CellTiter-Glo 2.0), W854T; settings: 7 days, 1 nM-30 μM, 96-well
Procedure: as §1, §2

[4] = tested on: mammary tumor organoid line W854T; assay: Organoid growth in medium containing Nutlin-3; settings: 5 μM Nutlin-3

Structure (SMILES) | concentration at which organoids respond (growth/viability) ([1]; 1 nM-30 μM, 96-well) | concentration at which organoids respond (growth/viability) [2] | concentration at which organoids respond (growth/viability) [3] | growth inhibition at concentrations up 30 μM [1] | growth in medium containing the p53 stabilizer [4]
COc1cc2ncnc(Nc3ccc(F)c(Cl)c3)c2cc1OCCCN1CCOCC1 [Iressa] | ~10 µM | ~10 µM | ~10 µM | – | –
COc1ccc(C2=N[C@@H](c3ccc(Cl)cc3)[C@@H](c3ccc(Cl)cc3)N2C(=O)N2CCNC(=O)C2)c(OC(C)C)c1 [Nutlin-3] | – | > 30 µM | > 30 µM | perhaps the exception | readily grew
